Reference: patent US20120121591A1 (priority 2009, published 2012)

Columns and labels:
Type in all cases: cell-based
hKv1.3 = hKv1.3 (Homo sapiens, UniProt P22001); assay: cell-based; conditions: Kv1.3 (IWQ) IC50 (nM, Avg)
[1] = test system: IL-2 secretion from T cells in human whole blood; conditions: read-out: WB (IL-2) IC50 (nM, Avg)
[2] = test system: IFN-g secretion from T cells in human whole blood; conditions: read-out: WB (IFNg) IC50 (nM, Avg)

hKv1.3, sequence (P22001 whole entry): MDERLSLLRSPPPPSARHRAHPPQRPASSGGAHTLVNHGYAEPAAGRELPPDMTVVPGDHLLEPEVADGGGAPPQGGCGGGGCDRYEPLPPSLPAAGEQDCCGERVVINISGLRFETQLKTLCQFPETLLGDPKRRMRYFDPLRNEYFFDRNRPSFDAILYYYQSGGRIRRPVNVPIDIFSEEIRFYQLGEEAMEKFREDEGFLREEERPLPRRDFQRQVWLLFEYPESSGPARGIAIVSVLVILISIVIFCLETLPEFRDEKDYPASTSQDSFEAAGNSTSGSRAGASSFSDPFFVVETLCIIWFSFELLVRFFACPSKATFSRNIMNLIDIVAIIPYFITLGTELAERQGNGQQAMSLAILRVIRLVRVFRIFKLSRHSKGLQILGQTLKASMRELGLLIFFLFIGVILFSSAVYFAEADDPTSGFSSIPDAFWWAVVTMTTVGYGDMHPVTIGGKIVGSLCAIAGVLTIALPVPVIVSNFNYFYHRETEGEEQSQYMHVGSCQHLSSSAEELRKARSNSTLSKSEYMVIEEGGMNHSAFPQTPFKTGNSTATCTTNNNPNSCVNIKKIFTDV

| SMILES | IC50 (hKv1.3) | IC50 [1] | IC50 [2] |
| --- | --- | --- | --- |
| CC[C@H](C)[C@@H]1NC(=O)[C@@H](NC(=O)[C@H](CO)NC(=O)[C@@H](N)CCCNC(=N)N)CSSC[C@@H](C(N)=O)NC(=O)[C@H]([C@@H](C)O)NC(=O)CNC(=O)[C@@H]2CSSC[C@@H]3NC(=O)[C@H](CCCCN)NC(=O)[C@H](Cc4ccccc4)NC(=O)[C@H](C)NC(=O)[C@H]([C@@H](C)O)NC(=O)[C@H](CSSC[C@H](NC(=O)[C@H](Cc4ccccc4)NC(=O)[C@H](CO)NC(=O)[C@H](CC(C)C)NC(=O)[C@H](CCCNC(=N)N)NC(=O)[C@H](Cc4ccc(O)cc4)NC(=O)[C@H](CCCCN)NC(=O)[C@H](CCC(N)=O)NC(=O)[C@H](CO)NC(=O)[C@H](Cc4c[nH]cn4)NC(=O)[C@H](CCCCN)NC3=O)C(=O)N[C@@H](CCCNC(=N)N)C(=O)N[C@@H](CCCCN)C(=O)N[C@@H]([C@@H](C)O)C(=O)N2)NC(=O)[C@H](CCCNC(=N)N)NC(=O)[C@H](CO)NC(=O)[C@H](CCCCN)NC(=O)[C@@H]2CCCN2C(=O)[C@H]([C@@H](C)CC)NC(=O)[C@H]([C@@H](C)O)NC(=O)[C@H](CC(=O)O)NC1=O [[Lys16, Gln21]ShK-amide] | 0.161 nM | 0.42 nM | 0.812 nM |
| CC[C@H](C)[C@@H]1NC(=O)[C@@H](NC(=O)[C@H](CO)NC(=O)[C@@H](N)CCCNC(=N)N)CSSC[C@@H](C(=O)O)NC(=O)[C@H]([C@@H](C)O)NC(=O)CNC(=O)[C@@H]2CSSC[C@@H]3NC(=O)[C@H](CCN)NC(=O)[C@H](Cc4ccccc4)NC(=O)[C@H](C)NC(=O)[C@H]([C@@H](C)O)NC(=O)[C@H](CSSC[C@H](NC(=O)[C@H](Cc4ccccc4)NC(=O)[C@H](CO)NC(=O)[C@H](CC(C)C)NC(=O)[C@H](CCCNC(=N)N)NC(=O)[C@H](Cc4ccc(O)cc4)NC(=O)[C@H](CCCCN)NC(=O)[C@H](CCSC)NC(=O)[C@H](CO)NC(=O)[C@H](Cc4c[nH]cn4)NC(=O)[C@H](CCCCN)NC3=O)C(=O)N[C@@H](CCCNC(=N)N)C(=O)N[C@@H](CCCCN)C(=O)N[C@@H]([C@@H](C)O)C(=O)N2)NC(=O)[C@H](CCCNC(=N)N)NC(=O)[C@H](CO)NC(=O)[C@H](CCCCN)NC(=O)[C@@H]2CCCN2C(=O)[C@H]([C@@H](C)CC)NC(=O)[C@H]([C@@H](C)O)NC(=O)[C@H](CC(=O)O)NC1=O [[Dab16]ShK] | 0.082 nM | 0.086 nM | 0.223 nM |
| CC[C@H](C)[C@@H]1NC(=O)[C@@H](NC(=O)[C@H](CO)NC(=O)[C@@H](N)CCCNC(=N)N)CSSC[C@@H](C(N)=O)NC(=O)[C@H]([C@@H](C)O)NC(=O)CNC(=O)[C@@H]2CSSC[C@@H]3NC(=O)[C@H](CCCCN)NC(=O)[C@H](Cc4ccccc4)NC(=O)[C@H](C)NC(=O)[C@H]([C@@H](C)O)NC(=O)[C@H](CSSC[C@H](NC(=O)[C@H](Cc4ccccc4)NC(=O)[C@H](CO)NC(=O)[C@H](CC(C)C)NC(=O)[C@H](CCCNC(=N)N)NC(=O)[C@H](Cc4ccc(O)cc4)NC(=O)[C@H](CCCCN)NC(=O)[C@H](Cc4c[nH]c5ccccc45)NC(=O)[C@H](CO)NC(=O)[C@H](Cc4c[nH]cn4)NC(=O)[C@H](CCCCN)NC3=O)C(=O)N[C@@H](CCCNC(=N)N)C(=O)N[C@@H](CCCCN)C(=O)N[C@@H]([C@@H](C)O)C(=O)N2)NC(=O)[C@H](CCCNC(=N)N)NC(=O)[C@H](CO)NC(=O)[C@H](CCCCN)NC(=O)[C@@H]2CCCN2C(=O)[C@H]([C@@H](C)CC)NC(=O)[C@H]([C@@H](C)O)NC(=O)[C@H](CC(=O)O)NC1=O [[Lys16, Trp21]ShK-amide] | 0.782 nM | 3.86 nM | 3.19 nM |
| CC[C@H](C)[C@@H]1NC(=O)[C@@H](NC(=O)[C@H](CO)NC(=O)[C@@H](N)CCCNC(=N)N)CSSC[C@@H](C(N)=O)NC(=O)[C@H]([C@@H](C)O)NC(=O)CNC(=O)[C@@H]2CSSC[C@@H]3NC(=O)[C@H](CCCCN)NC(=O)[C@H](Cc4ccccc4)NC(=O)[C@H](C)NC(=O)[C@H]([C@@H](C)O)NC(=O)[C@H](CSSC[C@H](NC(=O)[C@H](Cc4ccccc4)NC(=O)[C@H](CO)NC(=O)[C@H](CC(C)C)NC(=O)[C@H](CCCNC(=N)N)NC(=O)[C@H](Cc4ccc(O)cc4)NC(=O)[C@H](CCCCN)NC(=O)[C@H](C4CCCCC4)NC(=O)[C@H](CO)NC(=O)[C@H](Cc4c[nH]cn4)NC(=O)[C@H](CCCCN)NC3=O)C(=O)N[C@@H](CCCNC(=N)N)C(=O)N[C@@H](CCCCN)C(=O)N[C@@H]([C@@H](C)O)C(=O)N2)NC(=O)[C@H](CCCNC(=N)N)NC(=O)[C@H](CO)NC(=O)[C@H](CCCCN)NC(=O)[C@@H]2CCCN2C(=O)[C@H]([C@@H](C)CC)NC(=O)[C@H]([C@@H](C)O)NC(=O)[C@H](CC(=O)O)NC1=O [[Lys16, Chg21]ShK-amide] | 0.205 nM | 0.875 nM | 0.727 nM |
| CCCC[C@@H]1NC(=O)[C@H](CO)NC(=O)[C@H](Cc2c[nH]cn2)NC(=O)[C@H](CCCCN)NC(=O)[C@@H]2CSSC[C@@H]3NC(=O)[C@H]([C@@H](C)O)NC(=O)[C@H](CCCCN)NC(=O)[C@H](CCCNC(=N)N)NC(=O)[C@H](CSSC[C@H](NC(=O)[C@H](CCCNC(=N)N)NC(=O)[C@H](CCC(=O)O)NC(=O)[C@H](CCCCN)NC(=O)[C@@H]4CCCN4C(=O)[C@H]([C@@H](C)CC)NC(=O)[C@H]([C@@H](C)O)NC(=O)[C@H](CC(=O)O)NC(=O)[C@H]([C@@H](C)CC)NC(=O)[C@@H](NC(=O)[C@H](CO)NC(=O)[C@@H](N)CCCNC(=N)N)CSSC[C@@H](C(N)=O)NC(=O)[C@H]([C@@H](C)O)NC(=O)CNC3=O)C(=O)N[C@@H]([C@@H](C)O)C(=O)N[C@@H](C)C(=O)N[C@@H](Cc3ccccc3)C(=O)N[C@@H](CCCCN)C(=O)N2)NC(=O)[C@H](Cc2ccccc2)NC(=O)[C@H](CO)NC(=O)[C@H](CC(C)C)NC(=O)[C@H](CCCNC(=N)N)NC(=O)[C@H](Cc2ccc(O)cc2)NC(=O)[C@H](CCCCN)NC1=O [[Glu10,Lys16,Nle21]ShK-amide] | 0.127 nM | 0.776 nM | 1.26 nM |
| CC[C@H](C)[C@@H]1NC(=O)[C@@H](NC(=O)[C@H](CO)NC(=O)[C@@H](N)CCCNC(=N)N)CSSC[C@@H](C(N)=O)NC(=O)[C@H]([C@@H](C)O)NC(=O)CNC(=O)[C@@H]2CSSC[C@@H]3NC(=O)[C@H](CCCCN)NC(=O)[C@H](Cc4ccccc4)NC(=O)[C@H](C)NC(=O)[C@H]([C@@H](C)O)NC(=O)[C@H](CSSC[C@H](NC(=O)[C@H](Cc4ccccc4)NC(=O)[C@H](CO)NC(=O)[C@H](CC(C)C)NC(=O)[C@H](CCCNC(=N)N)NC(=O)[C@H](Cc4ccc(O)cc4)NC(=O)[C@H](CCCCN)NC(=O)[C@H](CCSC)NC(=O)[C@H](CO)NC(=O)[C@H](Cc4c[nH]cn4)NC(=O)[C@H](CCCCN)NC3=O)C(=O)N[C@@H](CCCNC(=N)N)C(=O)N[C@@H](CCCNC(=N)N)C(=O)N[C@@H]([C@@H](C)O)C(=O)N2)NC(=O)[C@H](CCCNC(=N)N)NC(=O)[C@H](CO)NC(=O)[C@H](CCCCN)NC(=O)[C@@H]2CCCN2C(=O)[C@H]([C@@H](C)CC)NC(=O)[C@H]([C@@H](C)O)NC(=O)[C@H](CC(=O)O)NC1=O [[Lys16,Arg30]ShK-amide] | 0.129 nM | 0.151 nM | 0.236 nM |
| CC[C@H](C)[C@@H]1NC(=O)[C@@H](NC(=O)[C@H](CO)NC(=O)[C@@H](N)CCCNC(=N)N)CSSC[C@@H](C(=O)O)NC(=O)[C@H]([C@@H](C)O)NC(=O)CNC(=O)[C@@H]2CSSC[C@@H]3NC(=O)[C@H](CCC(N)=O)NC(=O)[C@H](Cc4ccccc4)NC(=O)[C@H](C)NC(=O)[C@H]([C@@H](C)O)NC(=O)[C@H](CSSC[C@H](NC(=O)[C@H](Cc4ccccc4)NC(=O)[C@H](CO)NC(=O)[C@H](CCCNC(=N)N)NC(=O)[C@H](CCCNC(=N)N)NC(=O)[C@H](Cc4ccc(O)cc4)NC(=O)[C@H](CCCCN)NC(=O)[C@H](CCSC)NC(=O)[C@H](CO)NC(=O)[C@H](Cc4c[nH]cn4)NC(=O)[C@H](CCCCN)NC3=O)C(=O)N[C@@H](CCCNC(=N)N)C(=O)N[C@@H](CCCCN)C(=O)N[C@@H]([C@@H](C)O)C(=O)N2)NC(=O)[C@H](CCCNC(=N)N)NC(=O)[C@H](CO)NC(=O)[C@H](CCCCN)NC(=O)[C@@H]2CCCN2C(=O)[C@H]([C@@H](C)CC)NC(=O)[C@H]([C@@H](C)O)NC(=O)[C@H](CC(=O)O)NC1=O [[Arg25]ShK] | 0.107 nM | 0.095 nM | 0.2 nM |
| CC[C@H](C)[C@@H]1NC(=O)[C@@H](NC(=O)[C@H](CO)NC(=O)[C@@H](N)CCCNC(=N)N)CSSC[C@@H](C(=O)O)NC(=O)[C@H]([C@@H](C)O)NC(=O)CNC(=O)[C@@H]2CSSC[C@@H]3NC(=O)[C@H](CCC(N)=O)NC(=O)[C@H](Cc4ccccc4)NC(=O)[C@H](C)NC(=O)[C@H]([C@@H](C)O)NC(=O)[C@H](CSSC[C@H](NC(=O)[C@H](Cc4ccccc4)NC(=O)[C@H](CO)NC(=O)[C@H](CC(C)C)NC(=O)[C@H](CCCNC(=N)N)NC(=O)[C@H](Cc4ccc(O)cc4)NC(=O)[C@H](CCCCN)NC(=O)[C@H](CCSC)NC(=O)[C@H](CO)NC(=O)[C@H](Cc4c[nH]cn4)NC(=O)[C@H](CCCCN)NC3=O)C(=O)N[C@@H](CCCNC(=N)N)C(=O)N[C@@H](CCCCN)C(=O)N[C@@H]([C@@H](C)O)C(=O)N2)NC(=O)[C@H](CCCNC(=N)N)NC(=O)[C@H](CO)NC(=O)[C@H](CCCCN)NC(=O)[C@@H]2CCCN2C(=O)[C@H]([C@@H](C)CC)NC(=O)[C@H]([C@@H](C)O)NC(=O)[C@H](CCCNC(=N)N)NC1=O [[Arg5]ShK] | 3.3 nM | 47.3 nM | 91.7 nM |
| CC[C@H](C)[C@@H]1NC(=O)[C@@H](NC(=O)[C@H](CO)NC(=O)[C@@H](N)CCCNC(=N)N)CSSC[C@@H](C(=O)O)NC(=O)[C@H]([C@@H](C)O)NC(=O)CNC(=O)[C@@H]2CSSC[C@@H]3NC(=O)[C@H](CCC(N)=O)NC(=O)[C@H](Cc4ccccc4)NC(=O)[C@H](CCCNC(=N)N)NC(=O)[C@H]([C@@H](C)O)NC(=O)[C@H](CSSC[C@H](NC(=O)[C@H](Cc4ccccc4)NC(=O)[C@H](CO)NC(=O)[C@H](CC(C)C)NC(=O)[C@H](CCCNC(=N)N)NC(=O)[C@H](Cc4ccc(O)cc4)NC(=O)[C@H](CCCCN)NC(=O)[C@H](CCSC)NC(=O)[C@H](CO)NC(=O)[C@H](Cc4c[nH]cn4)NC(=O)[C@H](CCCCN)NC3=O)C(=O)N[C@@H](CCCNC(=N)N)C(=O)N[C@@H](CCCCN)C(=O)N[C@@H]([C@@H](C)O)C(=O)N2)NC(=O)[C@H](CCCNC(=N)N)NC(=O)[C@H](CO)NC(=O)[C@H](CCCCN)NC(=O)[C@@H]2CCCN2C(=O)[C@H]([C@@H](C)CC)NC(=O)[C@H]([C@@H](C)O)NC(=O)[C@H](CC(=O)O)NC1=O [[Arg14]ShK] | 0.077 nM | 0.266 nM | 0.307 nM |
